Source: patent US20240400579A1, “SPIROCYCLIC MODULATORS OF CHOLESTEROL BIOSYNTHESIS AND THEIR USE FOR PROMOTING REMYELINATION” (GENENTECH, INC., priority 2021, published 2024)
Read-outs that look alike come from different tables or passages of the source.

Target: human EBP (Homo sapiens (Human), UniProt Q15125)
Experiment: Competition binding assay (SPA) to determine compound affinity to EBP
Conditions: read-out: hEBP SPA Ki
Procedure: Membrane preparation: To examine compound binding affinity to EBP, human EBP was overexpressed in human embryonic kidney 293 cells. Cell pellet was lysed in 10 times weight binding buffer (50 mM Tris, 5 mM MgCl2, 0.1 mM EDTA, 1× protease inhibitor cocktail, pH 7.5) on ice by using a dounce homogenizer. The solution was centrifuged at 25,000 g for 50 min at 4° C. The membrane pellet was re-suspended in binding buffer and run through a 25 5/8 gauge needle. After checking the concentration by Bradford assay, the whole cell membrane solution was adjusted to 20 mg/mL and stored at −80° C.
This binding solution was centrifuged at 400 g for 5 minutes to collect the bead/membrane mixture. After re-suspending the pellet in binding buffer at the same calculated volume with 0.01% BSA (Sigma A1933), the bead/membrane mixture was added in 384-well low-binding surface plate (PerkinElmer Cat #6057480) at 25 i/well. Radioligand at different concentrations with and without the non-radio-labeled same ligand 5 uM (for nonspecific and total signal, respectively) was added to bring final volume to 50 i/well with DMSO concentration at 0.1%. At equilibrium (3 hours after ligand addition), radiometric signal CPM was counted by using a Microbeta2 microplate counter (Perkinelmer).
Competition binding assay to determine compound affinity: The same conditions of the radioligand Kd study were used for compound single dose percentage inhibition and equilibrium dissociation constant Ki examinations, except 50 nL compound DMSO stock was pre-added in 384-well low-binding surface plate (PerkinElmer Cat #6057480) by Echo 550 (Labcyte) to reach the final concentration for single dose test at 1 uM, and dose response test from 0.06 nM to 5 uM (8 dose, 5 times dilution). A pre-incubated bead/membrane mixture was added in compound plate at 0.3 mg beads and […] membrane per well. […] At equilibrium (3 hours after ligand addition), radiometric signal was counted as described above. The percentage inhibition of compound at each testing concentration was calculated by normalizing each condition's CPM readout to full block (5 uM non-radiolabeled ligand) and non-block (DMSO) control conditions. Compound binding inhibition IC50 was determined by nonlinear regression fitting of percentage inhibition plot against compound concentration. Compound Ki was calculated from the equation Ki=IC50/(1+[L]/Kd), which [L] was radioligand concentration used in assay. All tests had N bigger or equal to 2.

[1] = radioligand [3H]-Ifenprodil 10 nM, Ki=IC50/(1+[L]/Kd), HEK293 membrane

human EBP, sequence (Q15125 whole entry): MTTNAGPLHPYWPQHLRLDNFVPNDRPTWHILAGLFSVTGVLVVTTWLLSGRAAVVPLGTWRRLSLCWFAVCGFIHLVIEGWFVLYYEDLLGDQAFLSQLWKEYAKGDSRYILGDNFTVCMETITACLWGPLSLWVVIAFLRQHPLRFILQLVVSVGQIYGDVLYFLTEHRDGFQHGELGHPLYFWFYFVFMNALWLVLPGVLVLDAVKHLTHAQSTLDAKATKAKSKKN

| SMILES | Ki [1] [nM] | Ki [nM] |
| --- | --- | --- |
| CCC(C)(C)c1ccc(CC(C)CN2CCC3(C2)CS(=O)(=O)C3)cc1 (racemic) [Compound 107, 6-(2-Methyl-3-(4-(tert-pentyl)phenyl)propyl)-2-thia-6-azaspiro[3.4]octane 2,2-dioxide] | 23 | – |
| CC(Cc1ccc(C2CCC2)cc1)CN1CCC2(C1)CS(=O)(=O)C2 (racemic) [Compound 109A, 6-(3-(4-cyclobutylphenyl)-2-methylpropyl)-2-thia-6-azaspiro[3.4]octane 2,2-dioxide] | 32 | – |
| COC(Cc1ccc(C(F)(F)F)cc1)CN1CCC2(C1)CS(=O)(=O)C2 (racemic) [Example 143, (S)-6-(2-Methoxy-3-(4-(trifluoromethyl)phenyl)propyl)-2-thia-6-azaspiro[3.4]octane 2,2-dioxide and (R)-6-(2-methoxy-3-(4-(trifluoromethyl)phenyl)propyl)-2-thia-6-azaspiro[3.4]octane 2,2-dioxide] | 27 | – |
| C[C@@H](Cc1ccc(C(F)(F)F)cc1)CN1CCC2(C1)CS(=O)(=O)C2 (single isomer, unassigned) [114A*] | 35 | – |
| C[C@H](Cc1ccc(C(F)(F)F)cc1)CN1CCC2(C1)CS(=O)(=O)C2 (single isomer, unassigned) [114B*] | 34 | – |
| C[C@@H](Cc1ccc(C(F)(F)F)nc1)CN1CCC2(C1)CS(=O)(=O)C2 (single isomer, unassigned) [118A*] | 26 | – |
| C[C@@H](Cc1cnc(C(F)(F)F)nc1)CN1CCC2(CC1)CS(=O)(=O)C2 (single isomer, unassigned) [215A*] | 21 | – |
| C[C@H](Cc1cnc(C(F)(F)F)nc1)CN1CCC2(CC1)CS(=O)(=O)C2 (single isomer, unassigned) [215B*] | 25 | – |
| C[C@@H](CN1CCC2(CC1)CS(=O)(=O)C2)Oc1ccc(F)c(F)c1 (single isomer, unassigned) [221A*] | – | 10 |
| O=S1(=O)CC2(CCN(CC[C@H](F)c3ccc(C(F)(F)F)cc3)C2)C1 (single isomer, unassigned) [Compound 122B] | 18 | – |
| C[C@@H](Cc1ccnc(C(F)(F)F)c1)CN1CCC2(C1)CS(=O)(=O)C2 (single isomer, unassigned) [Compound 126A] | 30 | – |
| C[C@H](Cc1ccnc(C(F)(F)F)c1)CN1CCC2(C1)CS(=O)(=O)C2 (single isomer, unassigned) [Compound 126B] | 120 | – |
| C[C@@H](Cc1ccc(C(F)F)cc1)CN1CCC2(C1)CS(=O)(=O)C2 (single isomer, unassigned) [Compound 128A] | 56 | – |
| CC(C)(CN1CC[C@@]2(CCS(=O)(=O)C2)C1)Oc1ccc(C(F)(F)F)cc1 (single isomer, unassigned) [Compound 141A] | 44 | – |
| CC(C)(CN1CC[C@]2(CCS(=O)(=O)C2)C1)Oc1ccc(C(F)(F)F)cc1 (single isomer, unassigned) [Compound 141B] | 61 | – |
| C[C@@H](Cc1cnc(C(F)(F)F)nc1)CN1CCC2(C1)CS(=O)(=O)C2 (single isomer, unassigned) [Compound 145A] | 56 | – |
| CC(C)(Cc1ccc(C(F)(F)F)nc1)CN1CC[C@@]2(CCS(=O)(=O)C2)C1 (single isomer, unassigned) [Compound 148B] | 32 | – |
| O=S1(=O)CC2(CCN(CCOc3ccc(C(F)(F)F)cc3)C2)C1 [Compound 112, 6-(2-(4-(Trifluoromethyl)phenoxy)ethyl)-2-thia-6-azaspiro[3.4]octane-2,2-dioxide] | 28 | – |
| O=S1(=O)CC2(CCN(CCOc3ccc(C(F)(F)F)nc3)CC2)C1 [Compound 230, 7-(2-((6-(Trifluoromethyl)pyridin-3-yl)oxy)ethyl)-2-thia-7-azaspiro[3.5]nonane 2,2-dioxide] | 22 | – |
| CC(C)(CN1CCC2(C1)CS(=O)(=O)C2)Oc1ccc(C2CCC2)cc1 [Example 129, 6-(2-(4-Cyclobutylphenoxy)-2-methylpropyl)-2-thia-6-azaspiro[3.4]octane-2,2-dioxide] | 21 | – |
| CC(C)(CN1CCC2(C1)CS(=O)(=O)C2)Oc1cccc(C(F)(F)F)c1 [Example 130, 6-(2-Methyl-2-(3-(trifluoromethyl)phenoxy)propyl)-2-thia-6-azaspiro[3.4]octane-2,2-dioxide] | 16 | – |
| CC(C)(CN1CCC2(C1)CS(=O)(=O)C2)Oc1cccc(OC(F)(F)F)c1 [Example 131, 6-(2-Methyl-2-(3-(trifluoromethoxy)phenoxy)propyl)-2-thia-6-azaspiro[3.4]octane 2,2-dioxide] | 31 | – |
| CC(C)(CN1CCC2(C1)CS(=O)(=O)C2)Oc1ccc(C(F)(F)F)nc1 [Example 135, 6-(2-Methyl-2-((6-(trifluoromethyl)pyridin-3-yl)oxy)propyl)-2-thia-6-azaspiro[3.4]octane-2,2-dioxide] | 29 | – |
| CC(C)(CN1CCC2(C1)CS(=O)(=O)C2)Oc1ccc(OC(F)(F)F)cc1 [Example 136, 6-(2-Methyl-2-(4-(trifluoromethoxy)phenoxy)propyl)-2-thia-6-azaspiro[3.4]octane 2,2-dioxide] | 29 | – |
| CC(C)(CN1CCC2(CC1)CS(=O)(=O)C2)Oc1ccc(C(F)(F)F)cc1 [Example 138, 7-(2-Methyl-2-(4-(trifluoromethyl)phenoxy)propyl)-2-thia-7-azaspiro[3.5]nonane 2,2-dioxide] | 16 | – |
| CC(C)(Cc1ccc(C2CCC(F)(F)CC2)c(Cl)c1)CN1CCC2(C1)CS(=O)(=O)C2 [Example 139, 6-(3-(3-Chloro-4-(4,4-difluorocyclohexyl)phenyl)-2,2-dimethylpropyl)-2-thia-6-azaspiro[3.4]octane 2,2-dioxide] | 30 | – |
| CC(C)(Cc1ccc(C(F)(F)F)nc1)CN1CCC2(C1)CS(=O)(=O)C2 [Example 140, 6-(2,2-Dimethyl-3-(6-(trifluoromethyl)pyridin-3-yl)propyl)-2-thia-6-azaspiro[3.4]octane-2,2-dioxide] | 18 | – |
| CC(C)(CN1CCC2(C1)CS(=O)(=O)C2)Oc1cnc(C(F)(F)F)nc1 [Example 144, 6-(2-Methyl-2-((2-(trifluoromethyl)pyrimidin-5-yl)oxy)propyl)-2-thia-6-azaspiro[3.4]octane-2,2-dioxide] | 53 | – |
| O=S1(=O)CC2(CCN(CC3(Cc4ccc(C(F)(F)F)nc4)CC3)C2)C1 [Example 157, 6-((1-((6-(Trifluoromethyl)pyridin-3-yl)methyl)cyclopropyl)methyl)-2-thia-6-azaspiro[3.4]octane 2,2-dioxide] | 25 | – |
| O=S1(=O)CCC2(CC1)CN(CCOc1ccc(C(F)(F)F)cc1)C2 [Example 201, 2-(2-(4-(Trifluoromethyl)phenoxy)ethyl)-7-thia-2-azaspiro[3.5]nonane 7,7-dioxide] | 13 | – |
